Where two headings read alike, the source gives them in different places.
Test system: Gli1 mRNA levels in the murine BCC cell line ASZ-001 (Hh pathway)
Assay: Hh pathway inhibition: endogenous Gli1 mRNA (qRT-PCR) in ASZ-001 cells
Type: cell-based
Experimental: Initial Hh inhibition studies.
General Information for Cell Culture Studies Protocols for general cell culture, qPCR, and Hh inhibition ASZ cells are as previously described.
General Information for Cell Culture Studies. Protocols for general cell culture, qPCR, and Hh inhibition ASZ cells are as previously described.
Gene Expression Assay Protocol (ASZ-001): Cells are seeded (10,000 cells per well; 100 μL total volume per well) in a 96-well tissue culture plate. After 24 h of incubation (37° C., 5% CO2), growth media was removed and replaced with low FBS media. Cells were incubated for an additional 24 h. After this time, DMSO (vehicle control) and liposomes (Aqueous Solution) were added to the wells. […]
Rt-PCR Protocol: Following treatment and incubation periods, both RNA extraction and cDNA synthesis were performed using a TaqMan Cells-to-CT (fast) kit. cDNA synthesis utilized a BioRad MyCycler and was programmed according to the manufacturer's instructions. Quantitative RT-PCR was performed on an ABI 7500 system and made use of the following TaqMan Gene Expression Probes: mouse ActB (Mm00607939_s1) and mouse Gli1 (Mm00494654_m1). Relative gene expression levels were computed via ΔΔCT method using GraphPad Prism. Corresponding IC50 values were calculated as mean±SEM for at least three separate experiments performed in triplicate.

[1] = Table 6, ASZ cells, Gli1 mRNA, 48 h incubation, read-out: IC50
[2] = Table 7, ASZ cells, Gli1 mRNA, 48 h incubation, read-out: IC50
[3] = Table 7, ASZ cells, Gli1 mRNA, 48 h incubation

| SMILES | IC50 (Mus musculus, ASZ001, 48 h) [µM] | IC50 [1] [µM] | also measured |
| --- | --- | --- | --- |
| C[C@@]1(c2ccc(Cl)cc2Cl)OC[C@@H](COc2ccc(N3CCN(c4ccc([N+](=O)[O-])cc4)CC3)cc2)O1 [Compound 6, 1-(4-(((2R,4R)-2-(2,4-dichlorophenyl)-2-methyl-1,3-dioxolan-4-yl)methoxy)phenyl)-4-(4-nitrophenyl)piperazine] | 0.31 ± 0.04 | – | – |
| C[C@]1(c2ccc(Cl)cc2Cl)OC[C@@H](COc2ccc(N3CCN(c4ccc([N+](=O)[O-])cc4)CC3)cc2)O1 [Compound 7, 1-(4-(((2S,4R)-2-(2,4-dichlorophenyl)-2-methyl-1,3-dioxolan-4-yl)methoxy)phenyl)-4-(4-nitrophenyl)piperazine] | 0.26 ± 0.04 | – | – |
| C[C@]1(c2ccc(Cl)cc2Cl)OC[C@@H](COc2ccc(N3CCN(c4ccc(N)cc4)CC3)cc2)O1 [Compound 9, 4-(4-(4-(((2S,4R)-2-(2,4-dichlorophenyl)-2-methyl-1,3-dioxolan-4-yl)methoxy)phenyl)piperazin-1-yl)aniline] | 0.39 ± 0.09 | – | – |
| C[C@@]1(c2ccc(Cl)cc2Cl)OC[C@@H](COc2ccc(N3CCN(c4ccc(NC(=O)c5ccc6ccccc6c5)cc4)CC3)cc2)O1 [Compound 11, N-(4-(4-(4-(((2R,4R)-2-(2,4-dichlorophenyl)-2-methyl-1,3-dioxolan-4-yl)methoxy)phenyl)piperazin-1-yl)phenyl)-2-naphthamide] | – | > 10 | – |
| C[C@@]1(c2ccc(Cl)cc2Cl)OC[C@@H](COc2ccc(N3CCN(c4ccc(NC(=O)c5ccncc5)cc4)CC3)cc2)O1 [Compound 14, N-(4-(4-(4-(((2R,4R)-2-(2,4-dichlorophenyl)-2-methyl-1,3-dioxolan-4-yl)methoxy)phenyl)piperazin-1-yl)phenyl)isonicotinamide] | – | > 10 | – |
| C[C@]1(c2ccc(Cl)cc2Cl)OC[C@@H](COc2ccc(N3CCN(c4ccc(NC(=O)c5ccc6ccccc6c5)cc4)CC3)cc2)O1 [Compound 16, N-(4-(4-(4-(((2S,4R)-2-(2,4-dichlorophenyl)-2-methyl-1,3-dioxolan-4-yl)methoxy)phenyl)piperazin-1-yl)phenyl)-2-naphthamide] | – | > 10 | – |
| C[C@@]1(c2ccc(Cl)cc2Cl)OC[C@@H](COc2ccc(N3CCN(c4ccc(NC(=O)c5ccc(O)cc5)cc4)CC3)cc2)O1 [Compound 28, N-(4-(4-(4-(((2R,4R)-2-(2,4-dichlorophenyl)-2-methyl-1,3-dioxolan-4-yl)methoxy)phenyl)piperazin-1-yl)phenyl)-4-hydroxybenzamide] | – | > 10 | – |
| C[C@]1(c2ccc(Cl)cc2Cl)OC[C@@H](COc2ccc(N3CCN(c4ccc(NC(=O)c5ccc(O)cc5)cc4)CC3)cc2)O1 [Compound 31, N-(4-(4-(4-(((2S,4R)-2-(2,4-dichlorophenyl)-2-methyl-1,3-dioxolan-4-yl)methoxy)phenyl)piperazin-1-yl)phenyl)-4-hydroxybenzamide] | – | 3 ± 0.1 | – |
| C[C@]1(c2ccc(Cl)cc2Cl)OC[C@@H](COc2ccc(N3CCN(c4ccc(NC(=O)c5cccc(Cl)c5)cc4)CC3)cc2)O1 [Compound 32, 3-chloro-N-(4-(4-(4-(((2S,4R)-2-(2,4-dichlorophenyl)-2-methyl-1,3-dioxolan-4-yl)methoxy)phenyl)piperazin-1-yl)phenyl)benzamide] | – | – | IC50 [2]: > 10 µM |
| COc1cccc(C(=O)Nc2ccc(N3CCN(c4ccc(OC[C@@H]5CO[C@](C)(c6ccc(Cl)cc6Cl)O5)cc4)CC3)cc2)c1 [Compound 33, N-(4-(4-(4-(((2S,4R)-2-(2,4-dichlorophenyl)-2-methyl-1,3-dioxolan-4-yl)methoxy)phenyl)piperazin-1-yl)phenyl)-3-methoxybenzamide] | 5.7 | – | – |
| C[C@]1(c2ccc(Cl)cc2Cl)OC[C@@H](COc2ccc(N3CCN(c4ccc(NC(=O)c5ccoc5)cc4)CC3)cc2)O1 [Compound 35, N-(4-(4-(4-(((2S,4R)-2-(2,4-dichlorophenyl)-2-methyl-1,3-dioxolan-4-yl)methoxy)phenyl)piperazin-1-yl)phenyl)furan-3-carboxamide] | – | – | IC50 (μM) [3]: inactive; IC50 [2]: > 10 µM |
| C[C@]1(c2ccc(Cl)cc2Cl)OC[C@@H](COc2ccc(N3CCN(c4ccc(NC(=O)c5ccsc5)cc4)CC3)cc2)O1 [Compound 36, N-(4-(4-(4-(((2S,4R)-2-(2,4-dichlorophenyl)-2-methyl-1,3-dioxolan-4-yl)methoxy)phenyl)piperazin-1-yl)phenyl)thiophene-3-carboxamide] | – | – | IC50 (μM) [3]: inactive; IC50 [2]: > 10 µM |
| C[C@@]1(c2ccc(Cl)cc2Cl)OC[C@@H](COc2ccc(N3CCN(c4ccc(-n5cn[nH]c5=O)cc4)CC3)cc2)O1 [Compound 41] | – | – | IC50 (Table 8, ASZ cells, Gli1 mRNA, 48 h incubation, read-out: IC50): 0.14 µM |
| C[C@]1(c2ccc(Cl)cc2Cl)OC[C@@H](COc2ccc(N3CCN(c4ccc(-n5cn[nH]c5=O)cc4)CC3)cc2)O1 [Compound 42, 4-(4-(4-(4-(((2S,4R)-2-(2,4-dichlorophenyl)-2-methyl-1,3-dioxolan-4-yl)methoxy)phenyl)piperazin-1-yl)phenyl)-1H-1,2,4-triazol-5(4H)-one] | 0.21 | – | – |

Now from value to molecule, other results behind:

| IC50 (Mus musculus, ASZ001, 48 h) [µM] | IC50 [1] [µM] | SMILES | also measured |
| --- | --- | --- | --- |
| – | > 10 | C[C@@]1(c2ccc(Cl)cc2Cl)OC[C@@H](COc2ccc(N3CCN(c4ccc(NC(=O)c5ccccc5)cc4)CC3)cc2)O1 [Compound 10, N-(4-(4-(4-(((2R,4R)-2-(2,4-dichlorophenyl)-2-methyl-1,3-dioxolan-4-yl)methoxy)phenyl)piperazin-1-yl)phenyl)benzamide] | – |
| – | > 10 | C[C@@]1(c2ccc(Cl)cc2Cl)OC[C@@H](COc2ccc(N3CCN(c4ccc(NC(=O)c5ccccn5)cc4)CC3)cc2)O1 [Compound 12, N-(4-(4-(4-(((2R,4R)-2-(2,4-dichlorophenyl)-2-methyl-1,3-dioxolan-4-yl)methoxy)phenyl)piperazin-1-yl)phenyl)picolinamide] | – |
| – | > 10 | C[C@]1(c2ccc(Cl)cc2Cl)OC[C@@H](COc2ccc(N3CCN(c4ccc(NC(=O)c5ccccc5)cc4)CC3)cc2)O1 [Compound 15, N-(4-(4-(4-(((2S,4R)-2-(2,4-dichlorophenyl)-2-methyl-1,3-dioxolan-4-yl)methoxy)phenyl)piperazin-1-yl)phenyl)benzamide] | – |
| 3.9 ± 0.3 | – | C[C@]1(c2ccc(Cl)cc2Cl)OC[C@@H](COc2ccc(N3CCN(c4ccc(NC(=O)c5ccccn5)cc4)CC3)cc2)O1 [Compound 17, N-(4-(4-(4-(((2S,4R)-2-(2,4-dichlorophenyl)-2-methyl-1,3-dioxolan-4-yl)methoxy)phenyl)piperazin-1-yl)phenyl)picolinamide] | – |
| – | > 10 | C[C@]1(c2ccc(Cl)cc2Cl)OC[C@@H](COc2ccc(N3CCN(c4ccc(NC(=O)c5ccncc5)cc4)CC3)cc2)O1 [Compound 19, N-(4-(4-(4-(((2S,4R)-2-(2,4-dichlorophenyl)-2-methyl-1,3-dioxolan-4-yl)methoxy)phenyl)piperazin-1-yl)phenyl)isonicotinamide] | – |
| – | > 10 | C[C@@]1(c2ccc(Cl)cc2Cl)OC[C@@H](COc2ccc(N3CCN(c4ccc(NC(=O)c5ccccc5O)cc4)CC3)cc2)O1 [Compound 26, N-(4-(4-(4-(((2R,4R)-2-(2,4-dichlorophenyl)-2-methyl-1,3-dioxolan-4-yl)methoxy)phenyl)piperazin-1-yl)phenyl)-2-hydroxybenzamide] | – |
| 2.2 ± 0.3 | – | C[C@]1(c2ccc(Cl)cc2Cl)OC[C@@H](COc2ccc(N3CCN(c4ccc(NC(=O)c5ccccc5O)cc4)CC3)cc2)O1 [Compound 29, N-(4-(4-(4-(((2S,4R)-2-(2,4-dichlorophenyl)-2-methyl-1,3-dioxolan-4-yl)methoxy)phenyl)piperazin-1-yl)phenyl)-2-hydroxybenzamide] | – |
